According to ChEMBL document CHEMBL3124838, “Discovery of 6-aryl-azabenzimidazoles that inhibit the TBK1/IKK-ε kinases” (Bioorg Med Chem Lett, 2014):

How the values were obtained:
[1] = molecular target: Misshapen-like kinase 1 (Homo sapiens) (UniProt Q8N4C8); assay: Inhibition of human MINK assessed as residual activity at 1 uM relative to control
[2] = molecular target: Serine/threonine-protein kinase mTOR (Homo sapiens) (UniProt P42345); assay: Inhibition of human mTOR assessed as residual activity at 1 uM relative to control
[3] = molecular target: Proto-oncogene tyrosine-protein kinase receptor Ret (Homo sapiens) (UniProt P07949); assay: Inhibition of human RET assessed as residual activity at 1 uM relative to control
[4] = molecular target: Proto-oncogene tyrosine-protein kinase Src (Homo sapiens) (UniProt P12931); assay: Inhibition of human cSRC assessed as residual activity at 1 uM relative to control
Proto-oncogene tyrosine-protein kinase Src (Homo sapiens), sequence (P12931 2-536 limits assumed): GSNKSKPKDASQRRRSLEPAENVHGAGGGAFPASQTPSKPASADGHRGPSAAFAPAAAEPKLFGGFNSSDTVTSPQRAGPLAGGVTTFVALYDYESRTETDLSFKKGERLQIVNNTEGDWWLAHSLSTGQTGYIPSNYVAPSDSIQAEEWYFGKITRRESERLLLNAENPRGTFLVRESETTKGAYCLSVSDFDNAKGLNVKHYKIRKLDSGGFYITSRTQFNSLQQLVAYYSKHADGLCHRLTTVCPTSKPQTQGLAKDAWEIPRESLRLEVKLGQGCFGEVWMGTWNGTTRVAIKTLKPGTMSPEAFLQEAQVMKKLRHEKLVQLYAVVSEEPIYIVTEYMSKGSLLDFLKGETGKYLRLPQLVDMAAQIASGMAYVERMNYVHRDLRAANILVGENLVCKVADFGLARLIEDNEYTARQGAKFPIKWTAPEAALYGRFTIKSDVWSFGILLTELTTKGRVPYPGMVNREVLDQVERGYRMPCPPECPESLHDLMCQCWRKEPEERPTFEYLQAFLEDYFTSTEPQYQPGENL

[5] = molecular target: Calcium/calmodulin-dependent protein kinase type II subunit beta (Homo sapiens) (UniProt Q13554); assay: Inhibition of human CaMK2beta assessed as residual activity at 1 uM relative to control
Calcium/calmodulin-dependent protein kinase type II subunit beta (Homo sapiens), sequence (Q13554 whole entry): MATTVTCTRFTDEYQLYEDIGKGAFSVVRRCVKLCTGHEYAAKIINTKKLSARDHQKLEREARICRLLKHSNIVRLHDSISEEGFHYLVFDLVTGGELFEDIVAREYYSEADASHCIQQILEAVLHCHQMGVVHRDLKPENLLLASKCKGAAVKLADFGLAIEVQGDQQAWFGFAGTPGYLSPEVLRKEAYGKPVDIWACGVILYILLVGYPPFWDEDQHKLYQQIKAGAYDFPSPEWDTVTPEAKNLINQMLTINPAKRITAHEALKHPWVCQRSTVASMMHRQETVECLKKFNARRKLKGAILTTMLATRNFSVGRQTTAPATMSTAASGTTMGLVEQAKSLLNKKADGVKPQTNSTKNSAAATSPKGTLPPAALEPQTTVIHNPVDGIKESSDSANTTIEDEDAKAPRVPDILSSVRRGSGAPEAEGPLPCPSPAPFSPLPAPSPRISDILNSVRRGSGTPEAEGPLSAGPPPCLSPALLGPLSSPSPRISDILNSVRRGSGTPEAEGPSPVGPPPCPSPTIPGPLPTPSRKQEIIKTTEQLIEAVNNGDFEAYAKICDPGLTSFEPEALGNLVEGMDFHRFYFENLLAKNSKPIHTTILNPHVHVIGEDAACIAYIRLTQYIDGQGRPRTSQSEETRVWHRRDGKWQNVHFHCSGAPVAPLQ

[6] = molecular target: Fibroblast growth factor receptor 4 (Homo sapiens) (UniProt P22455); assay: Inhibition of human FGFR4 assessed as residual activity at 1 uM relative to control
[7] = test system: Fibroblast growth factor receptor 1 (Homo sapiens), P11362 [V561M]; assay: Inhibition of human FGFR1 V561M mutant assessed as residual activity at 1 uM relative to control
[8] = molecular target: Serine/threonine-protein kinase PAK 5 (Homo sapiens) (UniProt Q9P286); assay: Inhibition of human PAK5 assessed as residual activity at 1 uM relative to control
Serine/threonine-protein kinase PAK 5 (Homo sapiens), sequence (Q9P286 whole entry, looked up): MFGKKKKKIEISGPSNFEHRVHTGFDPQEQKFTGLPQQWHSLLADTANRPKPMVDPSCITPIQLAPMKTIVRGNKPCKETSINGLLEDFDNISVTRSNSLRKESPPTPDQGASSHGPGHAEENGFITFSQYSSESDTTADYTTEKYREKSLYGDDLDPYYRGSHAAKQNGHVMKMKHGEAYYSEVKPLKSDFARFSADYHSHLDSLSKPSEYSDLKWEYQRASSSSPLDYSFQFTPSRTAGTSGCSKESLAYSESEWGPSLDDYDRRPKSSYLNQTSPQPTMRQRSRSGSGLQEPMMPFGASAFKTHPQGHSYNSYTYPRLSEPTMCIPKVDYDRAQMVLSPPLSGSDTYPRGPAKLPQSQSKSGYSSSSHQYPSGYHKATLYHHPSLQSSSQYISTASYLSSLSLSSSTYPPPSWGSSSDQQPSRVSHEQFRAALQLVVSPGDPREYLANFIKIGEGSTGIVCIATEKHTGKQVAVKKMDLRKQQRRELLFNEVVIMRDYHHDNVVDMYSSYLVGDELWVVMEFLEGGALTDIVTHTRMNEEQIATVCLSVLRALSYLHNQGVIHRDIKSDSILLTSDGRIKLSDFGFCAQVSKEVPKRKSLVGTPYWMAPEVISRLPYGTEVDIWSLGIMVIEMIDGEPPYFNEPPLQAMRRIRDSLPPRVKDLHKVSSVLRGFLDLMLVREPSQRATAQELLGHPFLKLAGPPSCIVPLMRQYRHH

[9] = molecular target: Macrophage colony-stimulating factor 1 receptor (Homo sapiens) (UniProt P07333); assay: Inhibition of human FMS assessed as residual activity at 1 uM relative to control
Macrophage colony-stimulating factor 1 receptor (Homo sapiens), sequence (P07333 whole entry): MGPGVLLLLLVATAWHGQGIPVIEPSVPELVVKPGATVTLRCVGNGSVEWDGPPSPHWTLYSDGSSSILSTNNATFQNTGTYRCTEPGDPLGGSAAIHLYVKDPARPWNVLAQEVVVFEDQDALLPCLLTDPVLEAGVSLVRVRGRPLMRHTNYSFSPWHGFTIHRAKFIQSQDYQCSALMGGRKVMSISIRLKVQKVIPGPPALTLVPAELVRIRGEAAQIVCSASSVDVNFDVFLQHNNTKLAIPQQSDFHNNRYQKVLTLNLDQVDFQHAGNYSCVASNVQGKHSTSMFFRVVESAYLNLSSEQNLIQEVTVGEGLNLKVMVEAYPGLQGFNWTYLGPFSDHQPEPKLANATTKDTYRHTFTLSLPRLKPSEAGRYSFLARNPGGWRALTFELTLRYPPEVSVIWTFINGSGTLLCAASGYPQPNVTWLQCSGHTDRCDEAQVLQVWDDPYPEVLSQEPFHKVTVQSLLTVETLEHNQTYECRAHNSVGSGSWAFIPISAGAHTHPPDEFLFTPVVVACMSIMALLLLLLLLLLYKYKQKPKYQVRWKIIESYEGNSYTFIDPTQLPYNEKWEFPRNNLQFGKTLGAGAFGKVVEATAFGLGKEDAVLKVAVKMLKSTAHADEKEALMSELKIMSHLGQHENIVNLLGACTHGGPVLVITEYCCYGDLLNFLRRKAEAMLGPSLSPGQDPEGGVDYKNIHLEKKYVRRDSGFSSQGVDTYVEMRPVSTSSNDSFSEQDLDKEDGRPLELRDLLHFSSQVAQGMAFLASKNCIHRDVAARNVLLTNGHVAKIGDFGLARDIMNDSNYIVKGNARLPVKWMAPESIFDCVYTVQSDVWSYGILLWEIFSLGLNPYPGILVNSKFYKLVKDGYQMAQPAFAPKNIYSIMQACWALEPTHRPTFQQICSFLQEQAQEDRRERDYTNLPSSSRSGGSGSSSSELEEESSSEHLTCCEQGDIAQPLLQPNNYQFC

Aurora kinase B = Aurora kinase B (Homo sapiens, UniProt Q96GD4); assay: Inhibition of human Aurora-B assessed as residual activity at 1 uM relative to control
Aurora kinase B, sequence (Q96GD4 whole entry): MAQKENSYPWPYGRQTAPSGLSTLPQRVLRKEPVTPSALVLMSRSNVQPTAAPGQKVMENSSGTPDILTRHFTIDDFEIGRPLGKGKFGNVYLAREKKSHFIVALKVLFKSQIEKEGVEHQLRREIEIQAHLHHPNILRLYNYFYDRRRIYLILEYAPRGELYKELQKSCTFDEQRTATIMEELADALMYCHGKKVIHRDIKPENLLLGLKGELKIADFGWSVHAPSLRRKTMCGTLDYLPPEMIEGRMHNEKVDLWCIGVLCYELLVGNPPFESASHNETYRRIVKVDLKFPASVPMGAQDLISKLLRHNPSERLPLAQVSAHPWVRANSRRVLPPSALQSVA

[10] = molecular target: T1, Serine/threonine-protein kinase TBK1 (Homo sapiens, UniProt Q9UHD2); assay: Inhibition of TBK1 in HEK293 cells after 4.5 hrs by ISRE-luciferase reporter gene assay in presence of poly I:C; format: cell-based
T1 sequence (Q9UHD2 whole entry): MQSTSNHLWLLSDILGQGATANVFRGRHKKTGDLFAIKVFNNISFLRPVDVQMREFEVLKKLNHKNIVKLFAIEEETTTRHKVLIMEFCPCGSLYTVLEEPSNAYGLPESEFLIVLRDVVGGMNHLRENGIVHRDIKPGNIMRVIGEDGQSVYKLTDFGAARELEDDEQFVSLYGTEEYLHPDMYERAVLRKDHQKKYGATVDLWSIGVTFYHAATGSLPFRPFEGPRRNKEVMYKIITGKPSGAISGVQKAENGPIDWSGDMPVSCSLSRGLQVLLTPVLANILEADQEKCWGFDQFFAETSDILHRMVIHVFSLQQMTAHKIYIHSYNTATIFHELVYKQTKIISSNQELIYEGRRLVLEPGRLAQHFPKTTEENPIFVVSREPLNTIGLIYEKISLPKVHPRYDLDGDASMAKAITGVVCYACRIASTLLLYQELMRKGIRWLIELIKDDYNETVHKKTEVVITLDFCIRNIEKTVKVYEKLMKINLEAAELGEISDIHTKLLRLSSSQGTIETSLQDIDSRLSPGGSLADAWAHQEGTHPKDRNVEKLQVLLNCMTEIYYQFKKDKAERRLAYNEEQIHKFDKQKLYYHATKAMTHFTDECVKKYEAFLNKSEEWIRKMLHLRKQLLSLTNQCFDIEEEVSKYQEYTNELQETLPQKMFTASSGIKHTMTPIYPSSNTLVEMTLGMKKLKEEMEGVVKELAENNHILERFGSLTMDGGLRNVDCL

[11] = molecular target: T2, MAP kinase-activated protein kinase 5 (Homo sapiens) (UniProt Q8IW41); assay: Inhibition of human PRAK assessed as residual activity at 1 uM relative to control
T2 sequence (whole entry): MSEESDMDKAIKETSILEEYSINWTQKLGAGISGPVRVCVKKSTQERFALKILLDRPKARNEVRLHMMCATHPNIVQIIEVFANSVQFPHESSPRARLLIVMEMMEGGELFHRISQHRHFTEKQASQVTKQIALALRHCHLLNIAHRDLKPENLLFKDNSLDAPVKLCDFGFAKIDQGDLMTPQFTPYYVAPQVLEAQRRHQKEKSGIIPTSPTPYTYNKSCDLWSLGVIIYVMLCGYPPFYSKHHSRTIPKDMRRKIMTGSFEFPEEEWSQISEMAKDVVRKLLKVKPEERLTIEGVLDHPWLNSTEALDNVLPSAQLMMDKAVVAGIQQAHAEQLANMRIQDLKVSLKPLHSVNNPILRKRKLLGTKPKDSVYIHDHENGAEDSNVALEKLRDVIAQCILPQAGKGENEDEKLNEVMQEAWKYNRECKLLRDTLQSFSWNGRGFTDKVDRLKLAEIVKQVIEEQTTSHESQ

[12] = molecular target: Fibroblast growth factor receptor 2 (Homo sapiens) (UniProt P21802); assay: Inhibition of human FGFR2 assessed as residual activity at 1 uM relative to control
[13] = molecular target: Fibroblast growth factor receptor 1 (Homo sapiens) (UniProt P11362); assay: Inhibition of human FGFR1 assessed as residual activity at 1 uM relative to control
Fibroblast growth factor receptor 1 (Homo sapiens), sequence (P11362 22-822 limits assumed): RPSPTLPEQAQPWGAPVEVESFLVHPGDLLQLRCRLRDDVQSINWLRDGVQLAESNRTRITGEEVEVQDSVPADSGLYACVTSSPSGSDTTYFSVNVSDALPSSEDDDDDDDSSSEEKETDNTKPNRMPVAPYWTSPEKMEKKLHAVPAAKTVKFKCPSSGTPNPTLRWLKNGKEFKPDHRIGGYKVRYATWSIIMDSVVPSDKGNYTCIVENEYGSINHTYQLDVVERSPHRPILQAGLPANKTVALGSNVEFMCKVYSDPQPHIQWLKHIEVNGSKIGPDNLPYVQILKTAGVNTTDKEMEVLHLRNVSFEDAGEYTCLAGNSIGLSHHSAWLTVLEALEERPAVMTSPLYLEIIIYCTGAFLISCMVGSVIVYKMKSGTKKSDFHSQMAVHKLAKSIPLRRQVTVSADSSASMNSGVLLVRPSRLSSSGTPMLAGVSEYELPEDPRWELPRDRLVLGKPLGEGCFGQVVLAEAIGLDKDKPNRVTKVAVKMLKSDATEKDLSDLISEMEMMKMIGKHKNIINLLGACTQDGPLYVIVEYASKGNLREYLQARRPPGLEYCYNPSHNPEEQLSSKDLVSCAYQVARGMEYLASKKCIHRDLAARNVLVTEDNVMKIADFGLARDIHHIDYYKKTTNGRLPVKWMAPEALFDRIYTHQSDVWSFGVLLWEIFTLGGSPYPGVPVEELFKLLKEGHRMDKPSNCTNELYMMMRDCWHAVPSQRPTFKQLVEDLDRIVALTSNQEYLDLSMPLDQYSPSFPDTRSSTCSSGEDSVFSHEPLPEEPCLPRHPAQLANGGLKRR

[14] = molecular target: Calcium/calmodulin-dependent protein kinase type 1 (Homo sapiens) (UniProt Q14012); assay: Inhibition of human CaMK1 assessed as residual activity at 1 uM relative to control
Calcium/calmodulin-dependent protein kinase type 1 (Homo sapiens), sequence (Q14012 whole entry, looked up): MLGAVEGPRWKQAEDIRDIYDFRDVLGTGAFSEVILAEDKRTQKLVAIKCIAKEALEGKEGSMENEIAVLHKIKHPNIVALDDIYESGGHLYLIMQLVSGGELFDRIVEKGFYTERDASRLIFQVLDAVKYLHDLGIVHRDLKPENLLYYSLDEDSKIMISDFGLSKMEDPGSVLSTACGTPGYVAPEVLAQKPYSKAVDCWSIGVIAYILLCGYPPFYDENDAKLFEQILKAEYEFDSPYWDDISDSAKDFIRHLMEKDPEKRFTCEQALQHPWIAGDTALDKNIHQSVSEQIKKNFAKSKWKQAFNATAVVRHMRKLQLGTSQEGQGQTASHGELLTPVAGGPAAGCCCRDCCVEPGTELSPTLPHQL

[15] = molecular target: Tyrosine-protein kinase receptor UFO (Homo sapiens) (UniProt P30530); assay: Inhibition of human AXL assessed as residual activity at 1 uM relative to control
[16] = molecular target: Tyrosine-protein kinase Lck (Homo sapiens) (UniProt P06239); assay: Inhibition of human LCK assessed as residual activity at 1 uM relative to control
Tyrosine-protein kinase Lck (Homo sapiens), sequence (P06239 2-509 limits assumed): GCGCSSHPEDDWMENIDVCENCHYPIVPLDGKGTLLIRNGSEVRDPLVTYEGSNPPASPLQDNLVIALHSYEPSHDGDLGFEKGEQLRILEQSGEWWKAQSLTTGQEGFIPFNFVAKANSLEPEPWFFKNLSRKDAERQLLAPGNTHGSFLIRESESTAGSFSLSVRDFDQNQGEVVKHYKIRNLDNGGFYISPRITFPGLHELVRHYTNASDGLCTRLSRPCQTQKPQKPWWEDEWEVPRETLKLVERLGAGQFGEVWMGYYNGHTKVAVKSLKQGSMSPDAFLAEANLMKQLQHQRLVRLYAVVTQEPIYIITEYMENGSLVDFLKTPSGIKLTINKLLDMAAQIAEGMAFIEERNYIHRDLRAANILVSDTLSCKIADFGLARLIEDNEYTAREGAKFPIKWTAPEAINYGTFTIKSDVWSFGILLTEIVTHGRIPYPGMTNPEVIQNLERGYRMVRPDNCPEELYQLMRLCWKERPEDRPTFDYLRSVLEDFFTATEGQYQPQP

[17] = molecular target: Platelet-derived growth factor receptor beta (Homo sapiens) (UniProt P09619); assay: Inhibition of human PDGFRbeta assessed as residual activity at 1 uM relative to control
[18] = molecular target: Ribosomal protein S6 kinase alpha-1 (Homo sapiens) (UniProt Q15418); assay: Inhibition of human RSK1 assessed as residual activity at 1 uM relative to control
[19] = molecular target: Glycogen synthase kinase-3 alpha (Homo sapiens) (UniProt P49840); assay: Inhibition of human GSK3alpha assessed as residual activity at 1 uM relative to control

Row | Structure (SMILES) | Activity [1] | Activity [2] | Activity [3] | Activity [4] | Activity [5] | Activity [6] | Activity [7] | Activity [8] | Activity [9] | Activity (Aurora kinase B) | IC50 [10] | Activity [11] | Activity [12] | Activity [13] | Activity [14] | Activity [15] | Activity [16] | Activity [17] | Activity [18] | Activity [19]
1 | COc1ccc(-c2nc3cc(-c4csc(C(=O)NCCC(C)C)c4)cnc3[nH]2)cc1 | 86% | 110% | 7% | 47% | 97% | 102% | 90% | 86% | 70% | 78% | 78 nM | 102% | 90% | 91% | 83% | 98% | 31% | 70% | 76% | 102%
2 | COc1ccc(-c2nc3cc(-c4csc(C(=O)NCC(C)(C)C)c4)cnc3[nH]2)cc1 | 82% | 102% | 10% | 85% | 98% | 109% | 104% | 94% | 70% | 75% | 30 nM | 115% | 100% | 94% | 97% | 103% | 64% | 82% | 73% | 95%
3 | COc1ccc(-c2nc3cc(-c4csc(C(=O)NCC(C)C)c4)cnc3[nH]2)cc1 | 99% | 104% | 6% | 50% | 96% | 109% | 85% | 97% | 63% | 43% | 37 nM | 112% | 88% | 70% | 102% | 98% | 44% | 64% | 63% | 92%
